# Results taken from PubChem BioAssay AID1259407 (Chemical Carcinogenesis Research Information System (CCRIS), 2018).
# Calls of active or inactive are those of the source. The rule behind the calls is not given here.
# System: CCRIS mutagenicity, Ames/micronucleus/aberration tests
# Assay: CCRIS mutagenicity studies
smiles,measurement,setting,value
CC1(C)COC1=O,mutagenic call,"Test System: AMES SALMONELLA TYPHIMURIUM, Strain/Indicator: TA1537, Metabolic Activation: HAMSTER, LIVER, S-9, Method: STANDARD PLATE",inactive; negative
same,mutagenic call,"Test System: AMES SALMONELLA TYPHIMURIUM, Strain/Indicator: TA1537, Metabolic Activation: MOUSE, LIVER, S-9, AROCLOR 1254, Method: PREINCUBATION",inactive; negative
same,mutagenic call,"Test System: AMES SALMONELLA TYPHIMURIUM, Strain/Indicator: TA1537, Metabolic Activation: MOUSE, LIVER, S-9, AROCLOR 1254, Method: STANDARD PLATE",inactive; negative
same,mutagenic call,"Test System: AMES SALMONELLA TYPHIMURIUM, Strain/Indicator: TA1537, Metabolic Activation: MOUSE, LIVER, S-9, Method: PREINCUBATION",inactive; negative
same,mutagenic call,"Test System: AMES SALMONELLA TYPHIMURIUM, Strain/Indicator: TA1537, Metabolic Activation: MOUSE, LIVER, S-9, Method: STANDARD PLATE",inactive; negative
same,mutagenic call,"Test System: AMES SALMONELLA TYPHIMURIUM, Strain/Indicator: TA1537, Metabolic Activation: NONE, Method: PREINCUBATION",inactive; negative
same,mutagenic call,"Test System: AMES SALMONELLA TYPHIMURIUM, Strain/Indicator: TA1537, Metabolic Activation: NONE, Method: STANDARD PLATE",inactive; negative
same,mutagenic call,"Test System: AMES SALMONELLA TYPHIMURIUM, Strain/Indicator: TA1537, Metabolic Activation: RAT, LIVER, S-9, AROCLOR 1254, Method: PREINCUBATION",inactive; negative
same,mutagenic call,"Test System: AMES SALMONELLA TYPHIMURIUM, Strain/Indicator: TA1537, Metabolic Activation: RAT, LIVER, S-9, AROCLOR 1254, Method: STANDARD PLATE",inactive; negative
same,mutagenic call,"Test System: AMES SALMONELLA TYPHIMURIUM, Strain/Indicator: TA1537, Metabolic Activation: RAT, LIVER, S-9, Method: PREINCUBATION",inactive; negative
same,mutagenic call,"Test System: AMES SALMONELLA TYPHIMURIUM, Strain/Indicator: TA1537, Metabolic Activation: RAT, LIVER, S-9, Method: STANDARD PLATE",inactive; negative
same,mutagenic call,"Test System: AMES SALMONELLA TYPHIMURIUM, Strain/Indicator: TA1538, Metabolic Activation: HAMSTER, LIVER, S-9, AROCLOR 1254, Method: PREINCUBATION",inactive; negative
same,mutagenic call,"Test System: AMES SALMONELLA TYPHIMURIUM, Strain/Indicator: TA1538, Metabolic Activation: HAMSTER, LIVER, S-9, AROCLOR 1254, Method: STANDARD PLATE",inactive; negative
same,mutagenic call,"Test System: AMES SALMONELLA TYPHIMURIUM, Strain/Indicator: TA1538, Metabolic Activation: HAMSTER, LIVER, S-9, Method: PREINCUBATION",inactive; negative
same,mutagenic call,"Test System: AMES SALMONELLA TYPHIMURIUM, Strain/Indicator: TA1538, Metabolic Activation: HAMSTER, LIVER, S-9, Method: STANDARD PLATE",inactive; negative
same,mutagenic call,"Test System: AMES SALMONELLA TYPHIMURIUM, Strain/Indicator: TA1538, Metabolic Activation: MOUSE, LIVER, S-9, AROCLOR 1254, Method: PREINCUBATION",inactive; negative
same,mutagenic call,"Test System: AMES SALMONELLA TYPHIMURIUM, Strain/Indicator: TA1538, Metabolic Activation: MOUSE, LIVER, S-9, AROCLOR 1254, Method: STANDARD PLATE",inactive; negative
same,mutagenic call,"Test System: AMES SALMONELLA TYPHIMURIUM, Strain/Indicator: TA1538, Metabolic Activation: MOUSE, LIVER, S-9, Method: PREINCUBATION",inactive; negative
same,mutagenic call,"Test System: AMES SALMONELLA TYPHIMURIUM, Strain/Indicator: TA1538, Metabolic Activation: MOUSE, LIVER, S-9, Method: STANDARD PLATE",inactive; negative
same,mutagenic call,"Test System: AMES SALMONELLA TYPHIMURIUM, Strain/Indicator: TA1538, Metabolic Activation: NONE, Method: PREINCUBATION",inactive; negative
same,mutagenic call,"Test System: AMES SALMONELLA TYPHIMURIUM, Strain/Indicator: TA1538, Metabolic Activation: NONE, Method: STANDARD PLATE",inactive; negative
same,mutagenic call,"Test System: AMES SALMONELLA TYPHIMURIUM, Strain/Indicator: TA1538, Metabolic Activation: RAT, LIVER, S-9, AROCLOR 1254, Method: PREINCUBATION",inactive; negative
same,mutagenic call,"Test System: AMES SALMONELLA TYPHIMURIUM, Strain/Indicator: TA1538, Metabolic Activation: RAT, LIVER, S-9, AROCLOR 1254, Method: STANDARD PLATE",inactive; negative
same,mutagenic call,"Test System: AMES SALMONELLA TYPHIMURIUM, Strain/Indicator: TA1538, Metabolic Activation: RAT, LIVER, S-9, Method: PREINCUBATION",inactive; negative
same,mutagenic call,"Test System: AMES SALMONELLA TYPHIMURIUM, Strain/Indicator: TA1538, Metabolic Activation: RAT, LIVER, S-9, Method: STANDARD PLATE",inactive; negative
same,mutagenic call,"Test System: E. COLI, Strain/Indicator: WP2 UVRA, Metabolic Activation: HAMSTER, LIVER, S-9, AROCLOR 1254, Method: PREINCUBATION",active; positive
same,mutagenic call,"Test System: E. COLI, Strain/Indicator: WP2 UVRA, Metabolic Activation: HAMSTER, LIVER, S-9, Method: PREINCUBATION",active; positive
same,mutagenic call,"Test System: E. COLI, Strain/Indicator: WP2 UVRA, Metabolic Activation: MOUSE, LIVER, S-9, AROCLOR 1254, Method: PREINCUBATION",active; positive
same,mutagenic call,"Test System: E. COLI, Strain/Indicator: WP2 UVRA, Metabolic Activation: NONE, Method: PREINCUBATION",active; positive
same,mutagenic call,"Test System: E. COLI, Strain/Indicator: WP2 UVRA, Metabolic Activation: RAT, LIVER, S-9, AROCLOR 1254, Method: PREINCUBATION",active; positive
same,mutagenic call,"Test System: E. COLI, Strain/Indicator: WP2 UVRA, Metabolic Activation: RAT, LIVER, S-9, Method: PREINCUBATION",active; positive
